From patent US5756480A, “Treatment of hyperandrogenic conditions” (Merck & Co., Inc., priority 1996, dated 1998)
“Also recorded” adds a separate entry of the source. Where two headings read alike, the source gives them in different places.

Assays:
[1] = tested on: human prostate (type 2) 5α-reductase; conditions: result in words, cited from earlier work
[2] = tested on: human prostate (type 2) isozyme; conditions: cited from earlier work
[3] = tested on: human skin (type 1) isozyme; conditions: cited from earlier work
[4] = tested on: dihydrotestosterone levels; conditions: circulating finasteride concentrations comparable to Ki = 26 nM; result in words; cited from earlier work
[5] = biological target: T1, type 2 5α-reductase (Homo sapiens, UniProt P31213); assay: Progress curves of DHT formation, slow-binding inhibition of baculovirus-expressed type 2 5α-reductase; assay type: biochemical
T1 construct: made in house
T1 sequence (P31213 1-254): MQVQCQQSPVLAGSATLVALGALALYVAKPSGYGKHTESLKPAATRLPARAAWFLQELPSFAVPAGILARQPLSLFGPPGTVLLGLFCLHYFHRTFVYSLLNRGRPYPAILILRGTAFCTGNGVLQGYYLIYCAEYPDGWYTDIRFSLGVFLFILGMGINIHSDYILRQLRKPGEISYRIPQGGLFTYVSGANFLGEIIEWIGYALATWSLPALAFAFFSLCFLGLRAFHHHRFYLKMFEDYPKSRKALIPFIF
Protocol: Ethanol is included at 1% final concentration as the vehicle for introduction of inhibitors. The rate of production of [^3 H]dihydrotestosterone is approximately constant for up to 2 hours or 10% consumption of substrate. A unit of enzyme activity was defined as 1 pmol product/min, and is equal to 444 fmol enzyme under these conditions.
After quenching the reactions with an equal volume, or more, of water containing 1% trifluoroacetic acid, the [^3 H]dihydrotestosterone is isolated by direct injection onto a reverse phase C-18 column (Vydac, 4.6×250 mm, 300 Å, 5 micron), which is run in an isocratic system of 40% water (containing 0.1% trifluoroacetic acid) and 60% methanol at 1 mL/min. When tissue extracts are the source of enzyme, the quenched reactions are clarified by centrifugation at 10,000×g before analysis. Retention times are ~13 min for testosterone and ~20 min for dihydrotestosterone. The effluent containing the [^3 H]dihydrotestosterone peak (6 mL) is collected in a liquid scintillation vial and counted with AQUASOL 2 (14 mL, New England Nuclear) with an efficiency of 0.309. The assay is completely automated using a SUN SPARKSTATION 2 computer interfaced to a ZYMARK robot and ancillary equipment.
The native human enzyme was from prostate (type 2) or scalp (type 1) tissue, and the recombinant human enzymes were produced by the baculovirus expression system of Andersson, et al. (Chan, H. K., Geissler, W. M., Andersson, S., Sex Hormones and Antihormones in Endocrine Dependent Pathology: Basic and Clinical Aspects, M. Motta and M. Serio, eds., Elsevier Science 1994). […] Enzyme concentrations were determined by titration with finasteride, or [^3 H]finasteride, or from catalytic activity using kcat and Km values.
Alternatively, fractions may be collected and the samples counted on a scintillation counter. […] The time courses were fit to an integrated first-order rate equation (Equation 1), where A is product concentration, vo is the initial velocity, vs is the infinite-time velocity, and kobs is the first-order rate constant for progression of the enzyme between the two equilibrium states. […] (Ki=koff /kon).
A=vs t+(vo -vs)(1-e-^k obs^t)/kobs +Ao Equation

[6] = tested on: type 1 5α-reductase; assay: Kinetic constants of type 1 5α-reductase; assay type: biochemical, human
Text: (§1) Ethanol is included at 1% final concentration as the vehicle for introduction of inhibitors. […] A unit of enzyme activity was defined as 1 pmol product/min, and is equal to 444 fmol enzyme under these conditions.
(§2) The molecular weight was taken to be about 30,000 in estimating enzyme purity.

[7] = substrate: C[C@]12CC[C@H]3[C@@H](CCC4=CC(=O)CC[C@@]43C)[C@@H]1CC[C@@H]2O; assay: purified protein, by the assay type; conditions: other: baculovirus-expressed type 2 enzyme, pH 7.2, 37° C.
Text: as §1, §2

CC(C)(C)NC(=O)[C@H]1CC[C@H]2[C@@H]3CC[C@H]4NC(=O)C=C[C@]4(C)[C@H]3CC[C@]12C [Finasteride, 17β-(N-tert-butylcarbamoyl)-3-oxo-4-aza-5α-androst-1-ene-3-one]
inhibition of human prostate (type 2) enzyme [1]: potent inhibitor of the human prostate enzyme
inhibition of human prostate (type 2) enzyme ([1]; listed as finasteride): potently inhibited by finasteride
rate constant for binding to the human prostate isozyme ([2]; Faller et al. 1993): 270000 M⁻¹ s⁻¹
binding behavior / reversibility ([2]; human prostate (type 2) isozyme, result in words): slow-binding inhibitors; also recorded: essentially irreversible enzyme-inhibitor complex
Ki ([2]; printed as Ki <<1 nM, essentially irreversible complex, Faller et al. 1993): < 1 nM
inhibition of human skin (type 1) isozyme ([3]; result in words, listed as finasteride): relatively insensitive to finasteride; also recorded: not a significant inhibitor of human skin (type 1) isozyme at doses employed in the treatment of BPH
second-order rate constant for formation of the complex ([3]; type 1, Tian et al. 1994): 4000 M⁻¹ s⁻¹
reduction of dihydrotestosterone levels [4]: reduced levels of dihydrotestosterone to values approaching those found in individuals genetically deficient in the prostate isozyme

CCN(CC)C(=O)[C@H]1CC[C@H]2[C@@H]3CC[C@H]4OC(=O)C=C[C@]4(C)[C@H]3CC[C@]12C [L-682,299, 17β-(N-diethyl)carbamoyl-4-oxa-5α-androst-1-en-3-one]
Ki [5]: < 0.1 nM
velocity at infinite-time (vs) ([5]; 20 nM inhibitor, pH 7.2, 37° C.): essentially zero
inhibition over time ([5]; 20 nM inhibitor, pH 7.2, 37° C., result in words): the inhibition developed slowly with time and resulted in total inhibition of the enzyme
kon at 0.02 µM ([5]; pH 7.2, read-out: second-order rate constant for binding to the type 2 isozyme): 56000 M⁻¹ s⁻¹

C[C@]12CC[C@H]3[C@@H](CCC4=CC(=O)CC[C@@]43C)[C@@H]1CC[C@@H]2O [testosterone]
Km [6]: 7 µM
kcat for the type 1 enzyme [6]: 1.4 s⁻¹

B1: type 2 5α-reductase (Homo sapiens) (protein)
chain: T1 sequence (P31213 1-254)
Km [7]: 24.6 ± 0.7 nM
kcat [7]: 0.075 ± 0.006 s⁻¹
kcat/Km [7]: 2.99±0.32×10^6 M^-1 s^-1
